We go through one molecule from patent US20220016200A1, “PHARMACEUTICAL COMPOSITION FOR THE TREATMENT OF CYSTIC FIBROSIS” (GALENUS G.H. AG, priority 2018, published 2022).

SMILES strings stand for the structures. Where two headings read alike, the source gives them in different places. Bridge positions count the residues as written; N and C are the ends. Square brackets hold non-standard residues; d marks the D form. Peptide text beside a SMILES is read from it. * marks the point of attachment. Heptanoyl(5-Me) = CCC(C)CCCC(=O)*; Dab = NCC[C@H](N)C(=O)O

The subject of assay [1] is A. nosocomialis strain (1204194 IHMA). As to the kind of experiment: Colistin MIC of the susceptible strain used in the mouse model. It counts as cell-based. Conditions: Acinetobacter nosocomialis; colistin susceptible A. nosocomialis strain 1204194 IHMA. The protocol:
One colistin susceptible (MIC 1 mg/L) A. nosocomialis strain (1204194 IHMA) and one colistin resistant (MIC 4 mg/L) A. nosocomialis strain (1461911 IHMA) are used. […] Fresh brain heart infusion broth (Merck, Darmstadt, Germany) bacterial cultures, in an aerobic atmosphere in the logarithmic growth phase (4-5 hours) at 37° C., are adjusted to a concentration of 1.0×10^6 colony forming units (CFU)/mL, as verified by both spectrophotometry (OD600 0.01-0.02 nm) and colony counting.

Another assay concerns A. guillouiae 1285286. In words: Checkerboard colistin sulphate (CS) plus teicoplanin (TP), MIC/FIC and MBC/FBC. The settings on record: Acinetobacter guillouiae, agent alone, CAMHB, 5*10^5 CFU/ml. It counts as cell-based, Acinetobacter guillouiae. The procedure: (§1) Checkerboard analysis to determine minimal inhibitory concentration (MIC)/fractional inhibitory concentration (FIC) and minimal […] (MBC)/fractional […] (FBC) values of colistin sulphate (CS) plus teicoplanin (TP) for 6 Gram-negative strains with a bacterial load 5(1-10)*10^5 CFU/ml in a cation-adjusted Mueller-Hinton broth (CAMHB). • a. Antimicrobial stock solutions were prepared using sterile distilled water • b. CS was added along the ordinate; TP was added along the abscissa to 96 well, flat bottom, polystyrene panels with no treatment. Colistin alone was tested in triplicates. • c. Serial 2-fold dilutions starting with 640 μg/ml CS and 640 μg/ml TP were made; 15 μl volume of the serial dilutions were added for each agent to the appropriate wells; final volume at 30 μl • d. For each agent tested alone an additional 15 μl media was added to the well. 30 μl were added in control wells where none of the agent was tested. The negative control well contains 150 μl media without any additions • e. From an overnight bacterial culture in tryptic soy broth, 100 μL was added to 10 mL of fresh tryptic soy broth. This was then incubated at 37° C. for 1.5 hour at 180 rpm. • f. Bacteria in 120 μl CAMHB were added to each well (end concentration 5(1-10)*10^5 CFU/ml) • g. Plates were incubated at 37° C. in an ambient air incubator for 24 h • h. Turbidity at OD600 is determined with a plate photometer • i. By using a one-time inoculator 3 μl from each well of the 96-well plate were transferred to three blood agar plates. The plates were incubated over night at 37° C. in an ambient air incubator • j. MIC values are defined as lowest concentration which restricts bacterial growth to OD600 ≤0.1 • k. MBC values were determined by visual reading the lowest concentration which inhibits 99.9% of the growth of bacteria in the wells • l. Determination of the fractional inhibitory concentration (FIC) index and fractional bactericidal concentration (FBC) index and characterization of antimicrobial interactions was assessed […]
(§2) FIC calculation was carried out as: (MIC of drug A, tested in combination)/(MIC of drug A, tested alone)+(MIC of drug B, tested in combination)/(MIC of drug B, tested alone). FBC calculation was carried out just as well […]
(§3) Interactive categories were calculated from checkerboard analysis using MIC results from testing each agent alone and MIC results from the combination wells adjacent to the wells with growth in them […]
b. Indifference; FIC/FBC>0.5 to<4.0 c. Antagonism; FIC/FBC≥4.0 d. A. guillouiae 1285286 (IHMA), colistin resistant

Another assay concerns S. maltophilia 1237289. The assay is described as above. It counts as cell-based, Stenotrophomonas maltophilia. The settings on record: agent alone, CAMHB, 5*10^5 CFU/ml; for MIC: S. maltophilia 1237289. The procedure: as §1, with “Plates were incubated at 37° C. in an ambient air incubator for 24 h • h.” left out
as §2, §3
b. Indifference; FIC/FBC>0.5 to<4.0 c. Antagonism; FIC/FBC≥4.0 f. S. maltophilia 1237289 (IHMA), colistin resistant

The term MIC denotes the lowest concentration found to suppress growth. Usually MBC stands for the lowest tested concentration that kills the bacteria rather than only halting them. With `CCC(C)CCCC(=O)N[C@@H](CCN)C(=O)N[C@H](C(=O)N[C@@H](CCN)C(=O)N[C@H]1CCNC(=O)[C@H]([C@@H](C)O)NC(=O)[C@H](CCN)NC(=O)[C@H](CCN)NC(=O)[C@H](CC(C)C)NC(=O)[C@@H](CC(C)C)NC(=O)[C@H](CCN)NC1=O)[C@@H](C)O` (stereo partly drawn) [CS, colistin sulphate] ({Heptanoyl(5-Me)}-[Dab]T[Dab][Dab][Dab][dL]L[Dab][Dab]T; lactam 4-C), the MIC is 1 µg/mL in assay [1]; 2 µg/mL in the assay on A. guillouiae 1285286 (A. guillouiae 1285286, 24 h, read-out: MIC); “(8) mg/l” in the assay with S. maltophilia 1237289 (after 48 h growth (values in brackets)); at most 0.5 µg/mL in the assay on S. maltophilia 1237289 (Stenotrophomonas maltophilia, 1237289, 24 h, 24 h, read-out: MIC). Also, the MBC was 4 µg/mL in the assay on A. guillouiae 1285286 (1285286, A. guillouiae, read-out: MBC) and 8 µg/mL in the assay on S. maltophilia 1237289 (Stenotrophomonas maltophilia, S. maltophilia, second of two rows (strain number not given; by order 1237289)).
